Patent US10538561B2, “Peptide for treating inflammatory diseases” (priority 2015, dated 2020)

Key:
[1] = Cell viability (MTT assay) in SK-MEL-28; assay type: cell-based, Human; conditions: human, SK-MEL-28 melanoma cells
Description: (§1) Cell Lines/Cells: Human Keratinocytes (HaCaT); Human melanoma (SK-MEL-28); Human PBMCs. Test Item: IS181 Treatment regimen: Single addition—24 h, ^#Multiple additions (3)−72 h; Concentration range: 1 ng/ml-2 mg/ml (triplicate wells); Sera Condition: […] Method of estimation: MTT assay. […] Positive control: Triton-X-100, Doxorubicin Hydrochloride.

[2] = system: Human melanoma (SK-MEL-28); assay: Cell viability (MTT assay) in SK-MEL-28; assay type: cell-based
Description: as §1

[3] = Cell viability (MTT assay) in PBMCs; assay type: cell-based, Human; conditions: human, PBMCs
Description: as §1

Human PBMCs = assay: Cell viability (MTT assay) in PBMCs; assay type: cell-based; conditions: for IC50 value / cytotoxicity: PBMCs
Description: as §1

IL-1-β = assay: LPS stimulated IL-1-β secretion in RAW264.7; assay type: cell-based, Mouse; conditions: for IL-1-β % decrease with respect to LPS / IL-1-β Conc: RAW264.7 + LPS, 24 h
Description: Effect on pro-inflammatory cytokines against LPS stimulation: TNF-α; IL-6; IL-1-β: Cell lines: Murine macrophage cell line (RAW264.7); test item: IS181; experimental steps: pretreatment of cells with TI for 2 hours; stimulation with LPS (100 ng/ml) for 24 hours; supernatant collection for cytokine analysis; concentration range: o.1 μg/ml-500 μg/ml (duplicate wells); Cytokines: TNF-α; IL-6; IL-1-β; Method of estimating cytokines: ELISA; positive control: dexamethasone.
Cell line: RAW264.7 (Mouse macrophages); TI treatment regimen: Pretreatment for 2 h; TI Concentration range: 0.1 μg/ml-500 μg/ml (duplicate wells); LPS stimulation: 100 ng/ml; Time point for supernatants collection: 24 h; Method of estimation: ELISA; Positive control: Dexamethasone

TARC = assay: TNF-α stimulated TARC secretion in HaCaT; assay type: cell-based, Human; conditions: for TARC % decrease with respect to TNF-α / TARC Conc: HaCaT + TNF-α, 24 h
Description: Effect on pro-inflammatory cytokines against TNF-α/LPS+PMA stimulation: TNF-α; IFN-γ; TARC; TSLP; IL-6; IL-8: Cell lines: Human keratinocytes (HaCaT); test item (TI); IS181; experimental steps: pre-treatment of cells with TI for 2 hours; stimulation with TNF-α: 20 ng/ml; stimulation with LPS+PMA-10 μg/ml LPS+40 ng/ml PMA; supernatant collection for cytokine analysis after 24 hours; concentration range: 0.1 μg/ml-100 μg/ml (duplicate wells); cytokines: TNF-α; IFN-γ; TARC; TSLP; IL-6; IL-8. Method of estimating cytokines: ELISA; positive control: dexamethasone.
Cell line: HaCaT (Human Keratinocytes); TI Treatment regimen: Pretreatment for 2 h; TI Concentration range: 0.1 μg/ml-100 μg/ml (duplicate wells); TNF-α stimulation: 20 ng/ml; LPS+PMA stimulation: 10 μg/ml LPS+40 ng/ml PMA; Time point for supernatants collection: 24 h; Method of estimation: ELISA; Positive control: Dexamethasone

FLT1 (VEGFR1) = FLT1 (VEGFR1) (Homo sapiens, UniProt P17948); assay: Biochemical kinase assay FLT1; conditions: cell free
FLT1 (VEGFR1), sequence (P17948 27-1338): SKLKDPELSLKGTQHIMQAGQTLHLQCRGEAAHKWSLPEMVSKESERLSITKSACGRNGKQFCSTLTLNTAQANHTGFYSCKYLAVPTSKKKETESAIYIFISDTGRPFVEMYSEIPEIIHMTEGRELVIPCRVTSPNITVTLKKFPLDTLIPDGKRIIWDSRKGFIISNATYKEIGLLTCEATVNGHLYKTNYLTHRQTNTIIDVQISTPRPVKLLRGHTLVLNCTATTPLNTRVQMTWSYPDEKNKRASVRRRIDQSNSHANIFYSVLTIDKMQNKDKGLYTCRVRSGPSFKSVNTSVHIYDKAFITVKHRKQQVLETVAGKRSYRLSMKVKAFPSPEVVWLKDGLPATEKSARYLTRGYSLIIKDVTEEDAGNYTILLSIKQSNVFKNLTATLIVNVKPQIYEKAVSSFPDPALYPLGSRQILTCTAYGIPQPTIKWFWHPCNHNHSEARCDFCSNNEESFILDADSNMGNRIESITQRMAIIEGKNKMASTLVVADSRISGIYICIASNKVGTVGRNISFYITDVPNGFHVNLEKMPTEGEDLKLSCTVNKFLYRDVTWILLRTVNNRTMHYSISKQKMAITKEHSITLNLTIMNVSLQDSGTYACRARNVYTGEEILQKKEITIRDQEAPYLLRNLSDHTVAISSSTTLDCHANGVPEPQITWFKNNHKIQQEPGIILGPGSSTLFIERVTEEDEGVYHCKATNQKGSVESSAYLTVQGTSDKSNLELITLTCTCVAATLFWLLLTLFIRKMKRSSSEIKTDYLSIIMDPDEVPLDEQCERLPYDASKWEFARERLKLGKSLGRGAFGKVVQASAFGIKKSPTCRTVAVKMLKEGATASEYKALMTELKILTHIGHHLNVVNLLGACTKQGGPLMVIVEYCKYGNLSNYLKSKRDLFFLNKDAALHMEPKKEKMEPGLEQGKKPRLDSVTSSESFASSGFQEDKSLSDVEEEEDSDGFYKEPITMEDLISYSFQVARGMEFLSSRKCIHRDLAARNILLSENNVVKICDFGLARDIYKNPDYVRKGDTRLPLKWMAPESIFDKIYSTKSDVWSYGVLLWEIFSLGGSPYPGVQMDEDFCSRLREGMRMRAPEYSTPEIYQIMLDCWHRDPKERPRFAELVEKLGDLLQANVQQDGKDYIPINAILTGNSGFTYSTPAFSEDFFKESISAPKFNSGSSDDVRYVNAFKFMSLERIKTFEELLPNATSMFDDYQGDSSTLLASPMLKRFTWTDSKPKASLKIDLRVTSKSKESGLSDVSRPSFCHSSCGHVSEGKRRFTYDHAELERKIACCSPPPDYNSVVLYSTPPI
Description: Test system: cell free assays; test items: IS181; concentrations tested: 1 ng/ml-5000 μg/ml; Kinases: a) Cell free assays: EGFR (ErbB1); FLT1 (VEGFR1); JAK1; JAK3 MAP2K1 (MEK1); PDGFRA (PDGFR alpha); PRKCA (PKC alpha); b) cell based assay: JAK-STAT.

in vitro = conditions: human
Description: The cells were then incubated for 72 hours. Percentage cytotoxicity was determined using MTT assay.

Substance: H-WVQRVVEKFLK-OH [IS181, H-Trp-Val-Gln-Arg-Val-Val-Glu-Lys-Phe-Leu-Lys-OH]
- cytotoxicity at 24 h, 0.001 μg/ml ([1]; SK-MEL-28, 24 h, 0.001 μg/ml): -4.04%
- cytotoxicity at 24 h, 0.01 μg/ml ([1]; SK-MEL-28, 24 h, 0.01 μg/ml): -1.91%
- cytotoxicity at 24 h, 0.05 μg/ml ([1]; SK-MEL-28, 24 h, 0.05 μg/ml): 2.39%
- cytotoxicity at 24 h, 0.1 μg/ml ([1]; SK-MEL-28, 24 h, 0.1 μg/ml): -4.93%
- cytotoxicity at 24 h, 0.5 μg/ml ([1]; SK-MEL-28, 24 h, 0.5 μg/ml): -1.29%
- cytotoxicity at 24 h, 1 μg/ml ([1]; SK-MEL-28, 24 h, 1 μg/ml): -12.5%
- cytotoxicity at 24 h, 5 μg/ml ([1]; SK-MEL-28, 24 h, 5 μg/ml): -16.3%
- cytotoxicity at 24 h, 10 μg/ml ([1]; SK-MEL-28, 24 h, 10 μg/ml): -14%
- cytotoxicity at 24 h, 50 μg/ml ([1]; SK-MEL-28, 24 h, 50 μg/ml): -6.96%
- cytotoxicity at 24 h, 100 μg/ml ([1]; SK-MEL-28, 24 h, 100 μg/ml): -2.97%
- cytotoxicity at 24 h, 1000 μg/ml ([1]; SK-MEL-28, 24 h, 1000 μg/ml): -11.9%
- cytotoxicity at 72 h, 0.1 μg/ml ([1]; SK-MEL-28, 72 h, 0.1 μg/ml): -10.9%
- cytotoxicity at 72 h, 0.5 μg/ml ([1]; SK-MEL-28, 72 h, 0.5 μg/ml): -14.2%
- cytotoxicity at 72 h, 1 μg/ml ([1]; SK-MEL-28, 72 h, 1 μg/ml): -20%
- cytotoxicity at 72 h, 5 μg/ml ([1]; SK-MEL-28, 72 h, 5 μg/ml): 9.03%
- cytotoxicity at 72 h, 10 μg/ml ([1]; SK-MEL-28, 72 h, 10 μg/ml): 6.16%
- cytotoxicity at 72 h, 50 μg/ml ([1]; SK-MEL-28, 72 h, 50 μg/ml): -4.36%
- cytotoxicity at 72 h, 100 μg/ml ([1]; SK-MEL-28, 72 h, 100 μg/ml): 5.78%
- cytotoxicity at 72 h, 500 μg/ml ([1]; SK-MEL-28, 72 h, 500 μg/ml): 94%
- cytotoxicity at 72 h, 1000 μg/ml ([1]; SK-MEL-28, 72 h, 1000 μg/ml): 91%
- cytotoxicity at 72 h, 2000 μg/ml ([1]; SK-MEL-28, 72 h, 2000 μg/ml): 92%
- IC50 ([2]; 24 h): > 700 µM
- IC50 value ([2]; 24 h): >1000 µg/mL
- Selectivity Index -IC50 (PBMC)/IC50 (HaCaT/SK-MEL-28 cells) ([2]; 24 h): ≤2
- IC50 ([2]; 72 h): 160 µM
- Selectivity Index -IC50 (PBMC)/IC50 (HaCaT/SK-MEL-28 cells) ([2]; 72 h): 4
- IC50 value ([2]; SK-MEL-28, 72 h): 230 µg/mL
- cytotoxicity ([2]; SK-MEL-28, 72 h, concentrations ≥0.5 mg/ml): > 90%
- cytotoxic effects ([2]; SK-MEL-28, after 24 h of treatment): no cytotoxic effects
- cytotoxicity at 24 h, 1000 μg/ml ([3]; human PBMCs, 24 h, 1000 μg/ml): 40.2%
- cytotoxicity at 24 h, 2000 μg/ml ([3]; human PBMCs, 24 h, 2000 μg/ml): 53%
- cytotoxicity at 72 h, 500 μg/ml ([3]; human PBMCs, 72 h, 500 μg/ml): 32.7%
- cytotoxicity at 72 h, 1000 μg/ml ([3]; human PBMCs, 72 h, 1000 μg/ml): 70.8%
- cytotoxicity at 72 h, 2000 μg/ml ([3]; human PBMCs, 72 h, 2000 μg/ml): 66.1%
- cytotoxicity at 24 h, 10 μg/ml ([3]; peripheral blood mononuclear cells (PBMCs), 24 h, 10 μg/ml): -76.5%
- cytotoxicity at 24 h, 50 μg/ml ([3]; peripheral blood mononuclear cells (PBMCs), 24 h, 50 μg/ml): -67.1%
- cytotoxicity at 24 h, 100 μg/ml ([3]; peripheral blood mononuclear cells (PBMCs), 24 h, 100 μg/ml): -88.3%
- cytotoxicity at 24 h, 500 μg/ml ([3]; peripheral blood mononuclear cells (PBMCs), 24 h, 500 μg/ml): -105%
- cytotoxicity at 72 h, 10 μg/ml ([3]; peripheral blood mononuclear cells (PBMCs), 72 h, 10 μg/ml): 18.7%
- cytotoxicity at 72 h, 50 μg/ml ([3]; peripheral blood mononuclear cells (PBMCs), 72 h, 50 μg/ml): 20.1%
- cytotoxicity at 72 h, 100 μg/ml ([3]; peripheral blood mononuclear cells (PBMCs), 72 h, 100 μg/ml): 14%
- IC50 (Human PBMCs; 24 h): 1400 µM
- IC50 (Human PBMCs; 72 h): 680 µM
- IC50 value (Human PBMCs; 24 h): 2000 µg/mL
- cytotoxicity (Human PBMCs; 24 h, at concentrations 1 mg/ml): 40% to 53%
- IC50 value (Human PBMCs; 72 h): 980 µg/mL
- cytotoxicity (Human PBMCs; 72 h, concentrations >0.5 mg/ml): 33% to 66%
- IL-1-β inhibition as compared to LPS stimulated levels (IL-1-β; RAW264.7): good extent of IL-1-β inhibition
- IL-1-β % decrease with respect to LPS (IL-1-β; 0.1 μ/ml): 90.0%
- IL-1-β Conc (IL-1-β; 0.1 μ/ml): 2.2 pg/mL
- IL-1-β % decrease with respect to LPS (IL-1-β; 1 μ/ml): 30.3%
- IL-1-β Conc (IL-1-β; 1 μ/ml): 15.4 pg/mL
- IL-1-β % decrease with respect to LPS (IL-1-β; 5 μ/ml): 53.7%
- IL-1-β Conc (IL-1-β; 5 μ/ml): 10.2 pg/mL
- IL-1-β % decrease with respect to LPS (IL-1-β; 10 μ/ml): 71.9%
- IL-1-β Conc (IL-1-β; 10 μ/ml): 6.2 pg/mL
- IL-1-β % decrease with respect to LPS (IL-1-β; 100 μ/ml): 42.4%
- IL-1-β Conc (IL-1-β; 100 μ/ml): 12.7 pg/mL
- IL-1-β % decrease with respect to LPS (IL-1-β; 500 μ/ml): 72.6%
- IL-1-β Conc (IL-1-β; 500 μ/ml): 6.1 pg/mL
- decrease in IL-1-β level (IL-1-β; RAW264.7, 0.1 μg/ml-500 μg/ml): 30.3%-90%
- TARC inhibition (TARC; HaCaT): good extent of IFN-γ and TARC inhibition
- TARC % decrease with respect to TNF-α (TARC; 0.1 μg/ml): 28.6%
- TARC Conc (TARC; 0.1 μg/ml): 43.2 pg/mL
- TARC % decrease with respect to TNF-α (TARC; 1 μg/ml): 11.3%
- TARC Conc (TARC; 1 μg/ml): 53.6 pg/mL
- TARC % decrease with respect to TNF-α (TARC; 5 μg/ml): 1.5%
- TARC Conc (TARC; 5 μg/ml): 59.5 pg/mL
- TARC % decrease with respect to TNF-α (TARC; 10 μg/ml): 5.3%
- TARC Conc (TARC; 10 μg/ml): 57.3 pg/mL
- TARC % decrease with respect to TNF-α (TARC; 100 μg/ml): −22.6%
- TARC Conc (TARC; 100 μg/ml): 74.1 pg/mL
- inhibition at 50 µg/mL (FLT1 (VEGFR1); 50 μg/ml): 44%
- inhibition at 100 µg/mL (FLT1 (VEGFR1); 100 μg/ml): -16%
- inhibition at 250 µg/mL (FLT1 (VEGFR1); 250 μg/ml): -28%
- inhibition at 500 µg/mL (FLT1 (VEGFR1); 500 μg/ml): -44%
- inhibition at 1000 µg/mL (FLT1 (VEGFR1); 1000 μg/ml): -110%
- cytotoxicity at 72 h, 5000 μg/ml (in vitro; HaCaT keratinocyte cells): 96.1%
- cytotoxicity at 72 h, 10 μg/ml (in vitro; HaCaT keratinocytes): 16.7%
- cytotoxicity at 72 h, 50 μg/ml (in vitro; HaCaT keratinocytes): 17.8%
- cytotoxicity at 72 h, 500 μg/ml (in vitro; HaCaT keratinocytes): 26.9%
- cytotoxicity at 72 h, 1000 μg/ml (in vitro; HaCaT keratinocytes): 82.8%
- cytotoxicity at 72 h, 2000 μg/ml (in vitro; HaCaT keratinocytes): 75%
